# In patent EP4201929A1, “QUINOXALINE THIOREDOXIN REDUCTASE INHIBITORS” (geneXplain GmbH, priority 2021, dated 2023):
# Assays:
# [1] = test system: B16 melanoma; assay: B16 melanoma mouse model; type: in vivo, C57BL/6 mice; settings: 10mg/kg i.p. every other day for 9 days, day 8 and day 9, compared to vehicle-treated mice
# Experimental: Animal experiments were approved by the regional ethics committee for animal research (N391/11 and N26/11), appointed and under the control of the Swedish Board of Agriculture and the Swedish Court. The animal experiments were in accordance with national regulations (SFS 1988:534, SFS 1988:539 and SFS 1988:541).
# For the B16 melanoma mouse model, 6-weeks-old female C57BL/6 mice were injected subcutaneously with 1x10^6 B16 cells. When the tumors reached 80-120 mm^3, 10 mg/kg of 1d*HCl were administered intraperitoneally every other day for 9 days (days 1, 3, 5, 7, 9). Tumor volume was measured by caliper three times per week, and the volume was calculated based on the formula (in ml): L/10*W/10*W/10*0.44 (L=length, W=width of tumor). Mice were sacrificed when tumors reached 2 cm^3 or upon bleeding.
# We tested the anti-tumor activity of 1d*HCl using allogenic model of B16 mice. We inoculated mice with B16 melanoma cells. When the tumors reached 100 mm^3, we treated them with i.p. injection of 1d*HCl, 10mg/kg every other day for 9 days. […] The differences in tumor volume between untreated control mice and animals treated with 1d*HCl are all statistically significant. Thus, 1d*HCl has in vivo anti-tumor activity in this animal tumor model.
# [2] = molecular target: GR (Homo sapiens, UniProt P00390); assay: GR activity in cells; type: cell-based
# From the text: Having established that 1d*HCl inhibits TrxR1activity in vitro, it was important to confirm that 1d*HCl targets TrxRl in living cells. Therefore, we tested whether 1d*HCl is able to inhibit the enzymatic activity of TrxRl in MCF7 breast cancer cells. […] In contrast, GR activity was not inhibited by 1d*HCl in cells, which is in line with the in vitro results. Thus, we conclude that 1d*HCl selectively targets TrxRl in cancer cells and inhibits its activity, leading to the induction of ROS and oxidative stress.
# Chain of GR (P00390 44-522): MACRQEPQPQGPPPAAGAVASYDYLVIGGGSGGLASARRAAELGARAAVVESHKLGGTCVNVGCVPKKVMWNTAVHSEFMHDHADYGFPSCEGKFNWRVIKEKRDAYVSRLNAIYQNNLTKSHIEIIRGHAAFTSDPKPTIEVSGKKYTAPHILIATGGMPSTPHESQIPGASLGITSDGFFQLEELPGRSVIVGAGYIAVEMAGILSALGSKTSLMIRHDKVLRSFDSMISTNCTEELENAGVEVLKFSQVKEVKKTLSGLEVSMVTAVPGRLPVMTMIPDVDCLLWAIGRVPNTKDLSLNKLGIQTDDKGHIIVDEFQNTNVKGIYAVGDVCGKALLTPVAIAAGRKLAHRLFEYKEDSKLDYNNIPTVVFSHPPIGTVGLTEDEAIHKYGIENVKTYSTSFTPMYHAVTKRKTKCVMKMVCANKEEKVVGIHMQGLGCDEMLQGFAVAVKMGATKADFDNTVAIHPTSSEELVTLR
smiles,measurement,setting,value
"Cl.N#Cc1c(-c2cccnc2)[n+]([O-])c2cc(F)c(N3CCOCC3)cc2[n+]1[O-] [1d*HCl, 6-Fluoro-7-(morpholin-4-yl)-3-(pyridin-3-yl)quinoxaline-2-carbonitrile-1,4-dioxide hydrochloride]",tumor volume,[1],lower volume of tumors
same,GR activity in cells,[2],not inhibited
